Laboratory results taken from the supplement of paper PMC10307832.

Tests used:
Assay in all cases: relative viability (nuclei count vs DMSO), 5 days (fraction); higher = more cells survive
Crenolanib + Foretinib = compound: CC1(COc2ccc3c(c2)ncn3-c2ccc3cccc(N4CCC(N)CC4)c3n2)COC1 [Crenolanib] + COc1cc2c(Oc3ccc(NC(=O)C4(C(=O)Nc5ccc(F)cc5)CC4)cc3F)ccnc2cc1OCCCN1CCOCC1 [Foretinib] (partner 0.25 µM)
In short: (§1)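 Nuclei were stained with Hoechst during a one-step fixation (final 0.05% Triton X-100, 1% formaldehyde, 1 ug/ml Hoechst) carried out 5 days after dosing, then counted on 4× images. The cells, lung cancer lines in 1536-well plates, had been dosed by pin tool the day after seeding with one drug alone or a fixed anchor-drug dose plus five library-drug doses (not always all listed) in √10 steps. Relative viability is the nuclei count in treated wells divided by that in vehicle wells, and each value is the median of duplicate plates.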

Crenolanib + Decitabine = compound: CC1(COc2ccc3c(c2)ncn3-c2ccc3cccc(N4CCC(N)CC4)c3n2)COC1 [Crenolanib] + Nc1ncn([C@H]2C[C@H](O)[C@@H](CO)O2)c(=O)n1 [Decitabine] (partner 2 µM)
In short: as §1

Tivantinib + Navitoclax = compound: O=C1NC(=O)[C@@H](c2cn3c4c(cccc24)CCC3)[C@@H]1c1c[nH]c2ccccc12 [Tivantinib] + CC1(C)CCC(c2ccc(Cl)cc2)=C(CN2CCN(c3ccc(C(=O)NS(=O)(=O)c4ccc(N[C@H](CCN5CCOCC5)CSc5ccccc5)c(S(=O)(=O)C(F)(F)F)c4)cc3)CC2)C1 [Navitoclax] (partner 0.5 µM)
In short: as §1

Tivantinib + Decitabine = compound: O=C1NC(=O)[C@@H](c2cn3c4c(cccc24)CCC3)[C@@H]1c1c[nH]c2ccccc12 [Tivantinib] + Nc1ncn([C@H]2C[C@H](O)[C@@H](CO)O2)c(=O)n1 [Decitabine] (partner 2 µM)
In short: as §1

Cell Line | relative viability (Crenolanib + Foretinib; first compound 0.01 µM) | relative viability (Crenolanib + Foretinib; first compound 0.03162 µM) | relative viability (Crenolanib + Foretinib; first compound 0.1 µM) | relative viability (Crenolanib + Foretinib; first compound 0.3162 µM) | relative viability (Crenolanib + Foretinib; first compound 1 µM) | relative viability (Crenolanib + Decitabine; first compound 0.01 µM) | relative viability (Crenolanib + Decitabine; first compound 0.03162 µM) | relative viability (Crenolanib + Decitabine; first compound 0.1 µM) | relative viability (Crenolanib + Decitabine; first compound 0.3162 µM) | relative viability (Crenolanib + Decitabine; first compound 1 µM) | relative viability (Tivantinib + Navitoclax; first compound 0.01 µM) | relative viability (Tivantinib + Navitoclax; first compound 0.03162 µM) | relative viability (Tivantinib + Navitoclax; first compound 0.1 µM) | relative viability (Tivantinib + Navitoclax; first compound 0.3162 µM) | relative viability (Tivantinib + Decitabine; first compound 0.01 µM) | relative viability (Tivantinib + Decitabine; first compound 0.03162 µM) | relative viability (Tivantinib + Decitabine; first compound 0.1 µM) | relative viability (Tivantinib + Decitabine; first compound 0.3162 µM)
HCC-827 | 1.08 | 1.04 | 1.04 | 1.1 | 0.998 | 0.332 | 0.329 | 0.311 | 0.308 | 0.348 | 1.04 | 1.05 | 0.926 | 1.02 | 0.312 | 0.396 | 0.316 | 
HOP-62 | 1.19 | 1.23 | 1.09 | 1.08 | 1.15 | 0.222 | 0.19 | 0.29 | 0.205 | 0.234 | 0.9 | 0.859 | 1.07 | 1.02 | 0.173 | 0.191 | 0.196 | 0.242
IA-LM | 1.37 | 1.1 | 1.08 | 1.22 | 1.3 |  |  |  |  |  | 0.973 | 0.792 | 0.743 | 0.795 |  |  |  | 
LC-2-ad | 1.1 | 1.1 | 0.858 | 0.971 | 0.823 | 0.833 | 0.844 | 0.759 | 0.818 | 0.78 | 0.375 | 0.436 | 0.438 | 0.308 | 0.858 | 0.838 | 0.815 | 0.804
LCLC-97TM1 | 1.01 | 0.867 | 0.958 | 0.979 | 0.971 | 0.203 | 0.221 | 0.193 | 0.226 | 0.208 | 0.423 | 0.28 | 0.358 | 0.398 | 0.232 | 0.226 | 0.226 | 0.211
LCLC-103H | 0.947 | 0.88 | 0.874 | 0.826 | 0.622 | 0.752 | 0.709 | 0.692 | 0.769 | 0.72 |  |  |  |  | 0.658 | 0.762 | 0.731 | 0.708
LK-2 | 1.27 | 1.66 | 1.12 | 1.35 | 1.36 | 0.304 | 0.203 | 0.285 | 0.337 | 0.309 | 0.913 |  | 0.705 | 0.83 | 0.233 | 0.196 | 0.262 | 0.29
LOU-NH91 | 0.969 | 0.914 | 0.893 | 0.888 | 0.892 | 0.863 | 0.792 | 0.822 | 0.856 | 0.853 | 0.651 | 0.637 | 0.622 | 0.355 | 0.825 | 0.805 | 0.803 | 0.669
LU99A | 0.747 | 0.867 | 0.867 | 0.879 | 0.897 | 0.976 | 0.844 | 0.897 | 1.07 | 0.975 | 0.758 | 0.789 | 0.767 | 0.486 | 0.869 | 0.853 | 0.865 | 0.849
LXF-289 | 1.02 | 0.971 | 0.942 | 0.989 | 0.977 | 0.402 | 0.349 | 0.408 | 0.388 | 0.413 | 0.987 | 0.949 | 0.93 | 0.933 | 0.37 | 0.375 | 0.367 | 0.367
NCI-H23 | 1.12 | 1.13 | 0.97 | 0.995 | 1.06 | 0.288 | 0.359 | 0.347 | 0.353 | 0.321 | 0.987 | 1.01 | 0.759 | 0.753 | 0.333 | 0.294 | 0.31 | 0.318
NCI-H358 | 0.816 | 0.666 | 0.634 | 0.701 | 0.567 | 0.17 | 0.194 | 0.233 | 0.21 | 0.188 |  |  |  |  | 0.212 | 0.227 | 0.189 | 0.145
NCI-H522 |  |  |  |  |  | 0.668 | 0.63 | 0.665 | 0.64 | 0.607 |  |  |  |  | 0.715 | 0.551 | 0.633 | 0.535
NCI-H650 | 1.09 | 0.986 | 0.991 | 1.02 | 1 | 0.295 | 0.306 | 0.281 | 0.295 | 0.33 |  |  |  |  | 0.355 | 0.287 | 0.315 | 0.327
NCI-H661 | 0.972 | 0.969 | 0.99 | 1.07 | 1.02 | 0.534 | 0.514 | 0.544 | 0.555 | 0.541 |  |  |  |  | 0.565 | 0.542 | 0.558 | 0.398
NCI-H1299 | 1.1 | 1.04 | 1.06 | 1.05 | 1.11 |  |  |  |  |  | 1.01 | 0.998 | 1.06 | 1.05 |  |  |  | 
NCI-H1563 | 0.952 | 0.884 | 0.852 | 0.899 | 0.948 |  |  |  |  |  |  |  |  |  |  |  |  | 
NCI-H1648 |  |  |  |  |  | 0.521 |  | 0.477 | 0.467 | 0.59 |  |  |  |  |  | 0.507 | 0.513 | 0.397
NCI-H1703 | 0.32 | 0.293 | 0.321 | 0.313 | 0.269 |  |  |  |  |  | 1.51 | 1.29 | 1.19 | 0.833 |  |  |  | 
NCI-H1792 |  |  |  |  |  | 0.567 | 0.555 | 0.488 | 0.569 | 0.56 | 0.619 | 0.66 | 0.651 | 0.816 | 0.535 |  | 0.473 | 0.505
NCI-H2228 | 0.994 | 0.923 | 0.693 | 1.14 | 1.04 |  |  |  |  |  | 1.15 | 0.71 | 0.837 | 1.01 |  |  |  | 
NCI-H2342 | 1.01 | 1.02 | 1 | 1.2 | 0.816 | 0.766 | 0.649 | 0.742 | 0.903 | 0.694 |  |  |  |  | 0.845 | 0.789 | 0.699 | 0.624
SW 900 | 0.69 | 0.91 | 0.818 | 1.15 | 0.848 | 0.48 |  | 0.507 | 0.517 | 0.407 |  |  |  |  | 0.461 | 0.46 | 0.482 | 0.443
